Columns and labels:
[1] = tested on: NTSR1 transcription in HuH7, HEP 3B and PLC/PRF5 cells; experiment: NTSR1 transcript analysis in HCC cell lines; assay type: cell-based; conditions: three HCC cell lines, 20 nM LiCl for 6 h
Protocol: (§1) (A) NTS, NTSR2, NTSR3, and NTSR1 transcript analysis from 400 ng of HuH7, HEP 3B, and PLC/RF5, total RNA. NTSR1 A and NTSR1 B show the amplicon from two different set of primers. (B) Typical immunocytochemistry labeling for NTSR1 and DAPI in HEP 3B and PLC/RF5 cells. Cells were seeded on glass slides, grown for 48 h, and immunocytochemistry was performed as described in the Materials and Methods section. (C) NTSR1 transcript analysis from HuH7, HEP 3B and PLC/RF5 of total RNA from cells treated or not with […] LiCl for 6 h. (D) Typical immunocytochemistry NTSR1 labeling of HEP 3B and PLC/RF5 cells treated with 1 μM SB 216763 for 6 h.
(§2) Among the three cell lines studied, only PLC/PRF5 cells presented a dysregulation in the beta catenin pathway with a deletion in Axin (E4/−). […] We previously hypothesized that NTSR1 expression was correlated with deregulated wnt/beta catenin pathways. To evaluate this hypothesis, we forced the cellular and nuclear relocation of β-catenin in these cells lines with the LiCl, and an inhibitor of the glycogen synthase kinase (GSK) 3β, the SB216763. LiCl and SB216763 are known to decrease the degradation of β-catenin by inhibiting GSK-3 and promoting the accumulation of β-catenin in the cytoplasm of liver cancer cells.

[2] = tested on: phosphorylated-EGFR in HEP 3B and PLC/RF5 cells; experiment: Western blot of Tyr 1173 phosphorylated EGFR in HCC cell lines; assay type: cell-based; conditions: both cell lines
Protocol: (§3) (A) Typical immunocytochemistry labeling for NTSR1 (Top) and EGFR (Bottom) in PLC/RF5 and HEP 3B cells treated or not with 1 μM SB216763 or 5 μM SR4892 or both for 48 h. (B and C) Representative western blot analyses of Tyr 1173 phosphorylated EGFR, EGFR, and actin of HEP 3B and PLC/RF5 treated as indicate above.
In both cell lines, phosphorylated-EGFR was increased under SB216763 treatment this increase was abolished when SR 48692 was added to the treatment.

[3] = tested on: PLC-R1a and PLC-R2a cells; experiment: Migration assay on type 1 collagen, PLC/PRF5 NTSR1 overexpressing clones; assay type: cell-based; conditions: 5 μM SR 48692, vs DMSO
Protocol: (§4) (A) Speed of migration on type 1 collagen of HEP 3B and NTSR1 overexpressing clones treated or not with 1/100 NTS or 1/100 Long Fragment NTS antibody. Results represent the mean±SEM of 5 independent experiments. (B) Speed of migration on type 1 collagen of PLC/RF5 and NTSR1 overexpressing clones in the presence or not of 5 μM SR 48692. Results represent the mean±SEM of 3 independent experiments. (C) Numbers of invasive cells crossing the type I collagen in Boyden chamber when HEP 3B and NTSR1 overexpressing clones were treated or not with NTS or Long Fragment NTS antibody or 5 μM. SR 48692. Results are expressed relatively to wild type cells and represent the mean±SEM of 5 to 7 independent experiments.
Migration assays were used to evaluate the effect of NTS/NTSR1 on cancer cell migration, another hallmark contributing to the invasion and metastasis of cancers. The procedure described in the methods section allows the comparison of the migration speed between both cell lines at the same time over a period of 48 h, and on the intact type I collagen matrix. […] Similar observations were made with PLC/PRF5 cells and derivative clones.

[4] = tested on: EGFR expression in PLC/PRF5 and HEP3B cells; experiment: EGFR immunocytochemistry labeling in HCC cell lines; assay type: cell-based; conditions: for EGFR expression: PLC/PRF5 and HEP3B, 48 h, 1 μM SB216763 or 5 μM SR48692
Protocol: as §3
(§5) It was previously shown that the NTS/NTSR1 complex potentiates EGF signaling in liver, colon, prostate, lung, and breast cancer. We investigated the possible relation between NTSR1 expression and EGFR expression and activation. […] Treatment with SR48692, a specific NTSR1 antagonist, decreased the expression of EGFR, whereas NTSR1 expression was not altered. When the combined treatment with SB216763 and SR48692 is used, the effect of SB216763 on EFGR expression is limited by the presence of the NTSR1 antagonist (FIG. 5A).

HEP 3B tumors = experiment: HEP 3B experimental tumor growth in mice; assay type: in vivo
Protocol: (§6) (A) Experimental tumors were generated from the HCC cancer cell line, HEP 3B and PLC/RF5 and the NTSR1-overexpressing subclones. Comparative growth curves of HEP 3B, HEP-R1a, PLC/RF5, PLC/R1 in 8, 7, 10 and 7 mice, respectively. Tumor volumes were measured twice a week. (B) Tumor weight at 42 days. (C and D) Experimental tumors were generated from HEP 3B or HEP-R1a in the different mice. When the tumor size reached 100 mm3, mice were randomly distributed in 2 groups. A control group force feed with H2O, or with 1 mg/kg SR 48692 every day. (E) Typical IHC performed on paraffin sections for NTS, NTSR1 EGFR and phosphorylated EGFR labelling, 200× magnification.
(§7) Experimental tumors were generated from HEP 3B (A) and HEP-R1a (B) in the same mice. Mice were treated per os with 75 mg/kg erlotinib every day for 22 days. Tumor size was measured every two days. Result shown is the ratio of tumor compare to day 1. (C) The doubling time was subsequently calculated using the following formula: doubling time=t*((LN(2))/(LN(VOL F/VOL I)), at day 22.
(§8) Experimental tumors were generated from HEP 3B (D) or HEP-R1a (E) in the different mice. When the tumor size reached 100 mm^3, mice were randomly distributed in 2 groups. A control group force feed with H2O, and the treated group, force feed every day with […] sorafenib. Result shown is the ratio of tumor compare to day 1. (F) Tumor weight at day 15.
(§9) To determine the contribution of NTS/NTSR1 complex on tumor progression, mice were implanted with HCC cell lines and NTSR1 overexpressing clones. For HEP3B cells the tumors were measurable 21 days after cells injection. In contrast, the tumor burden for both clones overexpressing NTSR1 was measurable at day 13. The growth rate at day 42 was 2.9 and 2.08 fold higher for HEP-R1a and PLC-R1a as compared to respective parental cells, respectively, (FIG. 7A). As shown in FIG. 7B the tumor weights were in correspondence with the tumor size 4.3 and 2.8 fold higher for HEP-R1a and PLC-R1a as compared to their respective parental cells, respectively. To confirm the contribution of NTS/NSTR1 complex in tumor growth, animals were treated with a specific NTSR1 antagonist, the SR 48692. When tumors reach 100 mm3, the groups were treated per os with H2O, or 1 mg/kg SR 48692, respectively. […] The final tumor size of HEP-R1a tumors treated with SR 48692 was 441.9±39.85 mm^3, and was very similar to the untreated HEP 3B tumors 516.3±139.72 mm^3.
As shown above, NTSR1 activation induced a sustained EGFR activation, which we believe, acts as EGFR driver mutation (FIG. 4). To explore this hypothesis, the HCC cell lines HEP 3B and HEP-R1a were xenografted on the same mice. The mice were randomly distributed in two groups based on the size of the HEP 3B tumors. Since HEP-R1a tumors grow faster than HEP 3B tumors, HEP 3B cells were injected a few days before HEP-R1a cells. In the control group, the average HEP3B tumor size was 168.2±38.1 mm3 and the HEP-R1a tumor size was 79.7±16.4 mm3 at day 1. The treated group carried HEP 3B tumors of 164.7±31.2 mm3 and HEP-R1a tumors of 87.2±19.13 mm3 at day 1. Mice were daily treated, per os, with 75 mg/kg erlotinib or H2O for 22 days. […] Over the period of the treatment, the doubling time of HEP-R1a tumors was 7.0±0.55 days and 10.1±1.1 (p=0.0016) for control and treated with erlotinib, respectively. For the HEP 3B tumors, the doubling time was similar 7.8±0.52 and 7.7±0.84 days for control and treated group respectively (FIG. 8 C). […]

[5] = tested on: HEP3B cells with upregulated NTSR1 (HEP-R1a, HEP-R1b); experiment: Boyden chamber invasion on type-I collagen-coated inserts; assay type: cell-based; conditions: HEP3B NTSR1 clones, 36 hours, 5 μM SR 48692 or antibodies
Protocol: as §4
In parallel, Boyden chambers were used to examine the invasiveness characteristics of HCC cancer cells, on type-I collagen-coated inserts over 36 hours incubation. Compared with HEP 3B cells, the number of invading cancer cells for HEP-R1a cells and HEP-R1b cells is increased by 211±19% (p<0.01) and 617±94% (p<0.01), respectively. To determine whether NTS contributes to cellular invasion, cells were exposed to the NTSR1 antagonist, or two antibodies directed against NTS or the long fragment NTS. […] In our hands, the PLC/PRF5 cells were very invasive.

HEP-R1a tumors = experiment: HEP-R1a experimental tumor growth in mice; assay type: in vivo
Protocol: as §6, §7, §8, §9
As shown above, NTSR1 activation induced a sustained EGFR activation, which we believe, acts as EGFR driver mutation (FIG. 4). To explore this hypothesis, the HCC cell lines HEP 3B and HEP-R1a were xenografted on the same mice. The mice were randomly distributed in two groups based on the size of the HEP 3B tumors. Since HEP-R1a tumors grow faster than HEP 3B tumors, HEP 3B cells were injected a few days before HEP-R1a cells. In the control group, the average HEP3B tumor size was 168.2±38.1 mm3 and the HEP-R1a tumor size was 79.7±16.4 mm3 at day 1. The treated group carried HEP 3B tumors of 164.7±31.2 mm3 and HEP-R1a tumors of 87.2±19.13 mm3 at day 1. Mice were daily treated, per os, with 75 mg/kg erlotinib or H2O for 22 days. […] Over the period of the treatment, the doubling time of HEP-R1a tumors was 7.0±0.55 days and 10.1±1.1 (p=0.0016) for control and treated with erlotinib, respectively. For the HEP 3B tumors, the doubling time was similar 7.8±0.52 and 7.7±0.84 days for control and treated group respectively (FIG. 8 C).
Sorafenib is a known multikinase inhibitor targeting Raf/MEK/ERK signaling at the level of Raf kinase, angiogenesis, VEGFR-2/-3, and PDGFR-β tyrosine kinase. Sorafenib is currently used to treat HCC with some success. In order to evaluate the autocrine NTS regulation on sorafenib responses, each HEP 3B or HEP-R1a cells were injected to four groups of mice. When tumors reach 100 mm3, the groups were treated per os with H2O, 30 mg/kg sorafenib for 15 days, respectively. […]

[6] = tested on: NTSR1 expression in HEP 3B and PLC/PRF5 cells; experiment: NTSR1 immunocytochemistry labeling in HCC cell lines; assay type: cell-based; conditions: for NTSR1 expression: PLC/PRF5 and HEP3B, 48 h, 1 μM SB216763 or 5 μM SR48692
Protocol: as §1, §3, §2, §5

HEP 3B cells = experiment: Clonogenic assay, HEP 3B cells; assay type: cell-based; conditions: two weeks
Protocol: (§10) (A) Cellular proliferation performed on HEP 3B and HEP-R1b cells. Results are the means of 3 independents experiments and expressed as percentage of respective control. (B) Clonogenic assay performed with HEP 3B and HEP-R1b cells treated with different dose of erlotinib. Cells were incubated for two weeks with the treatment. Results are the means of 6 independents experiments and expressed as percentage of respective control. (C) Cellular proliferation performed on HEP 3B and HEP-R1a cells. Results are the means of 6 independents experiments. (D) Clonogenic assay performed with HEP 3B and HEP-R1a cells treated with different dose of sorafenib. Cells were incubated for two weeks with the treatment. Results are the means of 6 independents experiments.
(§11) We confirmed the erlotinib and sorafenib responses in cells overexpressing NTSR1 in clonogenic assay. […] In contrast, HEP 3B cells are not sensitive either to erlotinib or sorafenib.

advanced HCC = conditions: patients with advanced HCC and well-compensated liver function, oral; cited from earlier work
[7] = tested on: HEP-R1b and HEP-R1a cells; experiment: Clonogenic assay, NTSR1 overexpressing clones; assay type: cell-based; conditions: two weeks
Protocol: as §10, §11

[8] = tested on: cells overexpressing NTSR1 versus HEP 3B cells; experiment: Cellular proliferation test; assay type: cell-based; conditions: cells overexpressing NTSR1 compared with HEP 3B cells
Protocol: as §10, §11

[9] = 30 mg/kg sorafenib per os, 15 days

## [Cl-].[Li+] [LiCl]
[1]
  NTSR1 transcription: upregulated

## COc1cccc(OC)c1-c1cc(C(=O)NC2(C(=O)O)C3CC4CC(C3)CC2C4)nn1-c1ccnc2cc(Cl)ccc12 (stereo not shown) [SR48692]
[2]; SR 48692 added to SB216763 treatment
  SB216763-induced increase of phosphorylated-EGFR: abolished
[3]; PLC-R1a cells
  decrease of migration speed: 27%
[3]; PLC-R2a cells
  decrease of migration speed: 33%
[4]
  EGFR expression: decreased
[4]; combined treatment 1 μM SB216763 and 5 μM SR48692, 48 h
  effect of SB216763 on EGFR expression in presence of the NTSR1 antagonist: limited
HEP 3B tumors; HEP 3B tumors, 1 mg/kg SR 48692 per os every day
  tumor growth rate: no influence
[5]
  increase of cellular invasion when NTSR1 is upregulated: fully or partially abolished
HEP-R1a tumors; 1 mg/kg SR 48692 per os
  final tumor size: 441.9±39.85 mm^3
HEP-R1a tumors; 1 mg/kg SR 48692 per os every day
  tumor growth rate: inhibited by two fold
[6]
  NTSR1 expression: not altered

## Cn1cc(C2=C(c3ccc(Cl)cc3Cl)C(=O)NC2=O)c2ccccc21 [SB216763]
[2]; SB216763 treatment
  phosphorylated-EGFR: increased
[4]
  EGFR expression: increase
[6]; HEP3B and PLC/PRF5 cells, 1 μM SB 216763 for 6 h
  NTSR1 immunolabeling signal: remarkably amplified
[6]
  NTSR1 expression: increase

## CNC(=O)c1cc(Oc2ccc(NC(=O)Nc3ccc(Cl)c(C(F)(F)F)c3)cc2)ccn1 [sorafenib]
HEP 3B cells
  sensitivity in clonogenic assay: not sensitive
HEP 3B tumors; HEP 3B tumors, 30 mg/kg sorafenib per os, 15 days
  tumor growth rate: no influence
HEP 3B tumors; HEP 3B tumors, sorafenib treated group, end of treatment
  tumor weight versus control: approximately equal
HEP-R1a tumors; [9]
  final tumor size: 400.3±59.9 mm3
  tumor growth rate: inhibited by two fold
HEP-R1a tumors; sorafenib treated group, end of treatment (day 15)
  tumor weight: 0.650 ± 0.080 g
Advanced HCC
  survival: prolong survival
[7]; HEP-R1a cells exposed to sorafenib
  number of colonies: markedly reduced
[8]
  sensitivity in cellular proliferation test: more sensitive

## C#Cc1cccc(Nc2ncnc3cc(OCCOC)c(OCCOC)cc23)c1 [erlotinib]
HEP 3B cells
  sensitivity in clonogenic assay: not sensitive
HEP 3B tumors; HEP3B tumors, 75 mg/kg erlotinib per os daily, 22 days
  tumor growth response: did not respond
HEP 3B tumors; HEP 3B tumors, 75 mg/kg erlotinib, day 22
  tumor doubling time: 7.7 ± 0.84 days
HEP-R1a tumors; 75 mg/kg erlotinib per os daily, 22 days
  tumor growth rate: drastically affected
HEP-R1a tumors; 75 mg/kg erlotinib, day 22
  tumor doubling time: 10.1 ± 1.1 days
[7]; HEP-R1b cells exposed to erlotinib
  number of colonies: markedly reduced
[8]
  sensitivity in cellular proliferation test: more sensitive
